# Measured values: patent US11911356B2, “Regulation of mutant TERT by BRAF V600E/map kinase pathway through FOS/GABP in human cancer” (THE JOHNS HOPKINS UNIVERSITY, priority 2017, dated 2024)
# Tested on: ERK phosphorylation
# Assay: Western blotting of phosphorylated ERK in inhibitor-treated cells
# Type: cell-based, human
# Settings: 0.5 uM PLX4032, 24 hours
# Method: FIG. 2A-2G. BRAF V600E/MAPK pathway regulated TERT expression. (FIG. 2A) TERT expression was analyzed by qRT-PCR in cells treated with 0.5 uM PLX4032 or 0.2 uM AZD6244 for 24 hours (upper panel). The corresponding levels of phosphorylated ERK (p-ERK), total ERK (t-ERK), and beta-actin were detected by Western blotting (lower panel). The relative TERT mRNA expression levels were normalized to the DMSO control group. (FIG. 2B) Luciferase reporting assay of TERT promoter activities in K1 cells treated with DMSO or PLX4032 (0.5 uM). (FIG. 2C, 2D) Specific shRNA against BRAF were used to knock down BRAF in thyroid cancer cell lines BCPAP and K1 and melanoma cell line A375. Scramble shRNA was used as control. Cells were then subjected to Western blotting (FIG. 2C) and qRT-PCR (FIG. 2D). (FIG. 2E) Sequencing of the BRAF exon-15 in the parental and heterozygous BRAF-V600E knock-in SW48 cells. BRAF V600E was knocked in on one allele of BRAF by rAAV technology through homologous recombination and Cre recombinase of the Neo cassette. (FIG. 2F) Western blotting analyses of phosphorylation of ERK (p-ERK), total ERK (t-ERK), BRAF, and beta-actin in the parental and BRAF-V600E knock-in SW48 cells. (FIG. 2G) TERT promoter luciferase reporter assay in SW48 cells with/without BRAF V600E knock-in. **P<0.01, ***P<0.001, by 2-tailed Student's t test. P values are for the comparison of the indicated condition with DMSO (FIG. 2B), scramble (FIG. 2D), or BRAF-WT groups (FIG. 2G). All the values represent the average standard deviation (SD) of triplicate samples from a typical experiment. All the experiments were performed three times with similar results. […]
# Cells were lysed in the RIPA buffer (#sc-24948; Santa Cruz Biotechnology, Santa Cruz, CA) with protease inhibitor cocktail (#P8340; Sigma-Aldrich) and phosphatase inhibitor cocktail (#P0044; Sigma-Aldrich) and Western blotting analysis was performed as we previously described^54. […] Signals were detected by SuperSignal™ West Pico PLUS Chemiluminescent Substrate (#34579; Thermo Fisher Scientific). […]
smiles,measurement,setting,value
CCCS(=O)(=O)Nc1ccc(F)c(C(=O)c2c[nH]c3ncc(-c4ccc(Cl)cc4)cc23)c1F [PLX4032],ERK phosphorylation,cells harboring BRAF V600E mutation,specifically suppressed ERK phosphorylation
same,ERK phosphorylation,several wild-type BRAF cell lines,increase in ERK phosphorylation
